# From article PMC9786170, “The Pharmacological Potential of Novel Melittin Variants from the Honeybee and Solitary Bees against Inflammation and Cancer” (Toxins, 2022)
# Entries after “also recorded” stand apart in the source; their conditions may differ.
# Assays:
# HEK293T cells [1] = experiment: Ca2+ inhibition assay (ionomycin-stimulated, Fluo-8); assay type: cell-based, human; conditions: Fluo-8, peptide 30 min, then 5 µM ionomycin, n = 4
# Procedure: (§1) Figure 2 Melittin derivates influence cellular Ca^2+ and IP1 levels. (A) For the Ca^2+ induction assay, Fluo-8 pretreated HEK293-T cells were incubated with melittin derivates in the indicated concentrations and the fluorescence was detected. (B) For the Ca^2+ inhibition assay, Fluo-8 pretreated HEK293-T cells were incubated with peptides in the indicated concentrations for 30 min, stimulated with 5 µM ionomycin, and the fluorescence was detected. (C) IP3 has a short lifetime and is rapidly degraded to IP1; therefore, IP1 was determined. For the IP1/IP3 induction assay (left panel), HEK293T cells were incubated with melittin peptides in the indicated concentration for 2 h, a detection reagent was added, and the fluorescence resonance energy transfer signal was detected. For the IP1/IP3 inhibition assay (right panel), HEK293T cells were incubated with melittin peptides in the indicated concentration for 30 min and stimulated with 20 µM ionomycin for 1.5 h. After the addition of the detection reagent, the fluorescence resonance energy transfer signal was detected. Data are expressed as mean ± SEM. (A, B, C (left)) n = 4, (C (right)) n = 3. * p ≤ 0.05 versus control.
# (§2) For analysis, 5 × 10^4 HEK293 cells or 2 × 10^4 MDA-MB-231 cells were seeded in a 96-well poly-D-lysine plate, incubated at 37 °C for 24 h, and treated with 4 µM Fluo-8-AM in HBSS for 1 h at 37 °C. After 1 h, the Fluo-8/HBSS was replaced by 100 µL HBSS. Five images per second were taken using an ImageXpress Micro Confocal High Content Imaging System (Molecular Device, San Jose, CA, USA). Melittin peptides (0.25, 2.5, and 25 µg/mL), DMSO (negative control), or 5 µM ionomycin (Sigma Aldrich; Taufkirchen, Germany) (positive control) were added to the cells. For the next 20 s, an image was obtained every second. For the inhibition assay, the peptide-treated samples (30 min) were treated with 5 µM ionomycin and for the next 20 s, an image was obtained every second. The data were analyzed with the MetaXpress Software Version 6 (Molecular Devices, San Jose, CA, USA). A threshold of fluorescence intensity was defined using cells before treatment, and all cells with a fluorescence signal above the threshold level were counted. For the induction assay, the number of cells above the threshold in the toxin-treated samples were related to the cells in the DMSO-treated sample. For the inhibition assay, the number of cells above the threshold in the melittin-treated samples were related to the cells in the ionomycin-treated sample.
# RAW264.7 cells [2] = experiment: NO inhibition assay (LPS-stimulated, Griess); assay type: cell-based, murine; conditions: RAW264.7, peptide 30 min, then 100 ng/mL LPS 24 h, n = 3
# Procedure: Figure 4 Influence of melittin derivates on inflammation-associated cell functions. (A,B) For the NO induction assay (A), RAW264.7 cells were treated with melittin peptides in the indicated concentrations for 24 h. For the NO inhibition assay (B), RAW264.7 cells were pretreated with melittin peptides in the indicated concentrations for 30 min and then stimulated with 100 ng/mL LPS for 24 h. NO was detected in the supernatant using the Griess method. […] THP-1 cell adhesion under static conditions. HUVECs were grown to confluence, preincubated with bee venoms for 30 min, and activated with TNF (10 ng/mL) for 24 h. For the leukocyte adhesion assay, untreated THP-1 cells were stained with CellTracker Green and were allowed to adhere to the treated HUVECs for 5 min. The adhesion of leukocytes onto Ecs was quantified by fluorescence measurements for all cell adhesion experiments. Data are expressed as means ± SEM, (A,B) n = 3, (C) n = 2. * p ≤ 0.05 vs. TNF (positive) control.
# 2 × 10^4 RAW264.7 macrophages/well were plated in a 96-well plate and cultured for 24 h at 37 °C. To investigate if the melittin peptides induce nitrogen oxide (NO) synthesis, the melittin peptides, control (DMSO), and positive control (100 ng/mL lipopolysaccharide (LPS)) were added. To evaluate the effect of melittin peptides on inhibiting NO synthesis, the cells were pre-incubated with peptides or control (DMSO) for 30 min before 100 ng/mL LPS were added. After 24 h supernatants were collected and stored at −80 °C.
# NO was determined with the Griess method. Briefly, for the standard curve, different concentrations of sodium nitrite (0–50 µM) were prepared in the medium. A total of 80 µL cell supernatant or standard sample were added to a 96-well microplate and subsequently, 20 µL sulfanilamide solution (120 mg sulfanilamide in 30 mL 1 N hydrochloric acid) and 20 µL naphthylenediamine solution (180 mg N-(1-naphthyl)ethylenediamine dihydrochloride in 30 mL water) were added. After 15 min of incubation, the absorbance (540 nm) was measured with the EnSpire Plate Reader (PerkinElmer, Waltham, MA, USA). For the induction assay, the NO levels of the melittin peptides-treated samples were related to the DMSO-treated sample. For the inhibition assay, the NO levels of the melittin peptides-treated cells were correlated with the LPS-treated samples.
# HEK293T cells [3] = experiment: Ca2+ induction assay (Fluo-8); assay type: cell-based, human; conditions: Fluo-8, 0.25, 2.5, 25 µg/mL, partly already at 2.5 µg/mL, n = 4
# Procedure: as §1, §2
# RAW264.7 cells [4] = experiment: Cell viability assay (WST-8/Orangu formazan) in RAW264.7 cells; assay type: cell-based, murine
# Procedure: Figure 1 Toxicity characterization of cells treated with melittin peptides. (A,B) For the viability assay, RAW264.7 (A) or HEK293T (B) cells were treated with bee venom compounds in the indicated concentrations for 24 h. Cells were incubated with WST-8 and the formed formazan was detected by absorbance measurements. (C) For the proliferation assay, HMEC-1 cells were grown in low density and treated after 24 h with the indicated peptide (25 µg/mL) for 72 h. Cells were stained with crystal violet solution. The amount of DNA-bound crystal violet was detected by absorbance measurements. (D) The number of sub-diploidic cells was determined by staining with propidium iodide (PI) and quantified to assess apoptosis of HUVECs. Data are expressed as mean ± SEM. (A) n = 3, (B) n = 4, (C) n = 2–3, (D) n = 2. * p ≤ 0.05 versus control.
# For assessing the cytotoxicity of all peptides, various cell types and assays were utilized. To determine the cell viability of HEK293T and RAW246.7 cells, the Orangu^TM assay (Cell Guidance Systems Ltd., Cambridge, UK) was used, as previously described. 2 × 10^5 HEK293T or 2 × 10^5 RAW246.7 were seeded in 96-well plates. Different concentrations (0, 0.25, 2.5, 25 µg/mL) of melittin peptides or vehicle (DMSO) were added. After 24 h of incubation at 37 °C and 5% CO2, 10 µL of Orangu^TM cell counting solution was added and incubated for 60 min. After incubation, absorbance was measured at a wavelength of 450 nm with a reference at 650 nm at an EnSpire 2300 Multimode Plate Reader (Perkin Elmer, Lübeck, Germany). To calculate cell viability, the absorbance of vehicle-treated cells was set to 100%, and the melittin derivates-treated samples were correlated to them.
Substance,inhibition of ionomycin-induced Ca2+ release (HEK293T cells [1]),inhibition of LPS-induced NO synthesis (RAW264.7 cells [2]),induction of Ca2+ release (HEK293T cells [3]),"reduction of cell viability (RAW264.7 cells [4]; RAW264.7, 25 µg/mL, 24 h, WST-8 formazan absorbance, vehicle = 100%, n = 3)","cytotoxicity in RAW264.7 (RAW264.7 cells [4]; RAW264.7 macrophage, Discussion)"
codesane,inhibited the ionomycin-induced Ca^2+ release; also recorded: inhibit Ca^2+ levels,prevented LPS-induced NO synthesis in a concentration-dependent manner,without inducing Ca^2+ release,,
halictin,inhibit Ca^2+ levels,,,,
halictin [Hal2],inhibited the ionomycin-induced Ca^2+ release,,without inducing Ca^2+ release,,
melectin,,prevented LPS-induced NO synthesis in a concentration-dependent manner,induced a significant release of Ca^2+; also recorded: induce Ca^2+ release,,
osmin,,prevented LPS-induced NO synthesis in a concentration-dependent manner,induced a significant release of Ca^2+; also recorded: induce Ca^2+ release,,
xylopin [Xac1],inhibit Ca^2+ levels,,,,
xylopin [Xac3],,prevented LPS-induced NO synthesis in a concentration-dependent manner; also recorded: inhibit NO synthesis,induced a significant release of Ca^2+,more than 90%,induced significant cytotoxicity
